According to patent publication US11173150B2, “Method for diagnosing, preventing, and treating neurological diseases” (United States Government As Represented By The Department …, priority 2010, dated 2021):

How the values were obtained:
[1] = oral administration; cited from earlier work
[2] = Index case: 12 week therapeutic trial of oral vancomycin; type: in vivo, human; conditions: 125 mg QID oral, 12 weeks; person
Protocol: […] Diarrhea began after three 10 day courses of broad spectrum antimicrobials prescribed over a six week period for “chronic otitis media.” There was no blood or pus in the stool nor associated constitutional symptoms. There was profound behavioral and developmental deterioration, along with emergence of severe autistic features.
A 12 week therapeutic trial of oral vancomycin (125 mg QID) was begun with expanded observations by a pediatric neuropsychologist pre- and post-treatment. At baseline, the child was not on a special diet nor was […] taking any vitamin supplements. Three days after initiation of the vancomycin therapy, a hyperactivity pattern emerged which lasted for four days. […] became affectionate and relatively calm. […] promptly achieved toilet training and increased vocabulary. Follow-up behavioral observations after eight weeks of therapy noted an increase in on-task performance, compliance with parental requests, awareness of environmental surroundings, and persistence when engaging in positive activities. A significant reduction in repetitive and self-stimulatory behaviors was also noted. The child's educational therapies remained unchanged for both six months before and during the vancomycin trial. Shortly after vancomycin discontinuation, behavioral deterioration was observed. Though still improved over baseline, […] eventually lost most of the initial gains.

Desulfovibrio = assay: Antimicrobial susceptibility testing, CLSI serial two-fold plate dilution; type: cell-based; conditions: for MIC: Desulfovibrio
[3] = Open-label trial of oral vancomycin in children with regressive onset autism; type: in vivo, human
Text: To explore whether our index case's improvement represented a true therapeutic effect, institutional human investigation committee approval was obtained for an open-label trial in a narrowly defined subgroup of autistic children. Eleven children (10 males, 1 female; age range: 43-84 months) were enrolled. Inclusion criteria for the study were derived from our central hypothesis and index case characteristics. They include 1) Meets diagnostic criteria for Autistic Disorder (DSM IV 299.00); 2) Other genetic and medical diagnoses have been adequately evaluated and ruled out; 3) Definable, rapid onset after 12 months of age; 4) Antecedent antimicrobial use (<2 months of autism symptom onset); 5) Persistent loose stool history, with diarrhea onset before autism symptoms; 6) Symptoms for <4 years; 7) Child is 2-8 years of age; 8) No evidence of any significant medical problem that might complicate treatment such as renal, cardiac or pulmonary disease, severe enterocolitis (visible blood or pus in the stool), or chronic infection (e.g., tuberculosis); and 9) Clinically static for 3 months (no new neuroleptic, seizure, or other medications), with no elective changes during the study, and 10) No antimicrobial use for at least 2 months prior to entry into the study. All children had diarrhea and regressive onset of autistic features (occurring at a mean of 17.7±3.4 months) as previously defined in the literature.
The Developmental Profile II provided descriptive developmental levels to contrast with developmental age. […] The Childhood Autism Rating Scale (CARS) was also administered. The CARS is a 15-item behavioral rating scale developed to identify children with autism, and to distinguish them from developmentally handicapped children without the autism syndrome. Based upon CARS diagnostic categories, six children met the criteria for severe autism, two for moderate autism, and three for mild autism. The vancomycin dose was 500 mg/day given orally as a liquid (500 mg/6 ml), divided into 2 ml TID for eight weeks. This was followed by four weeks of oral treatment with a probiotic mixture of Lactobacillus acidophilus, L. bulgaricus, and Bifidobacterium bifidum (40×10^9 cfu/ml).
Two measures of potential improvement were examined: I) Children were videotaped for 30 minutes at baseline and once during therapy in a playroom environment. At each session, the child was directed to play with a series of puzzles, books, blocks, and dolls by the mother and then by the evaluator. At the end of the trial, a clinical child psychologist (who was provided with a brief explanation of our working hypothesis) compared coded, paired videotapes of 10 of the 11 children studied (video was not available for one child). The psychologist viewed each pair of tapes and scored them. […] 2) Behavior and communication analog rating scales were completed by the study physician at baseline, during therapy, and at follow-up in a manner similar to previously validated methods for other disease states. Results are presented as median scores to account for potential non-linear score increment.

CN[C@H](CC(C)C)C(=O)N[C@H]1C(=O)N[C@@H](CC(N)=O)C(=O)N[C@H]2C(=O)N[C@H]3C(=O)N[C@H](C(=O)N[C@H](C(=O)O)c4cc(O)cc(O)c4-c4cc3ccc4O)[C@H](O)c3ccc(c(Cl)c3)Oc3cc2cc(c3O[C@@H]2O[C@H](CO)[C@@H](O)[C@H](O)[C@H]2O[C@H]2C[C@](C)(N)[C@H](O)[C@H](C)O2)Oc2ccc(cc2Cl)[C@H]1O [Vancomycin]
six: Children with brief (1-4 days) period of hyperactivity ([3]; within three days of initiating antibiotic treatment, eleven children enrolled)
improvement: Analog rating scale, communication ([3]; unblinded, group as a whole, Wilcoxon Signed Ranks Z=2.9 p=0.003) | Analog rating scale, behavior ([3]; unblinded, group as a whole, Wilcoxon Signed Ranks Z=-2.9, p=0.003)
two: Time to substantial behavioral deterioration after discontinuance ([3]; reported by most parents, telephone follow-up)
1 µg/mL: MIC (Desulfovibrio; Desulfovibrio type strain 29098^T)
512 µg/mL: MIC (Desulfovibrio; Desulfovibrio strain 9976)
> 512 µg/mL: MIC (Desulfovibrio; Desulfovibrio strain 4019) | MIC (Desulfovibrio; Desulfovibrio strain 8381) | MIC (Desulfovibrio; Desulfovibrio strain 8907) | MIC (Desulfovibrio; Desulfovibrio strain 8933) | MIC (Desulfovibrio; Desulfovibrio strain 8951) | MIC (Desulfovibrio; Desulfovibrio strain 9070) | MIC (Desulfovibrio; Desulfovibrio strain 9120) | MIC (Desulfovibrio; Desulfovibrio strain 9706) | MIC (Desulfovibrio; Desulfovibrio strain 11094) | MIC (Desulfovibrio; Desulfovibrio strain 11232) | MIC (Desulfovibrio; Desulfovibrio strain 11346) | MIC (Desulfovibrio; Desulfovibrio strain 11437) | MIC (Desulfovibrio; Desulfovibrio strain 11568) | MIC (Desulfovibrio; Desulfovibrio strain 11623) | MIC (Desulfovibrio; Desulfovibrio strain 11717) | MIC (Desulfovibrio; Desulfovibrio strain 11789) | MIC (Desulfovibrio; Desulfovibrio strain 11830) | MIC (Desulfovibrio; Desulfovibrio strain 11949) | MIC (Desulfovibrio; Desulfovibrio strain 13966) | MIC (Desulfovibrio; Desulfovibrio type strain 7757^T)
not very active on a weight basis: MIC against Desulfovibrio, summary in words (Desulfovibrio; discussion of Table 14)
eight of ten: Blinded assessment of coded, paired videotapes: children with improvement during therapy ([3]; 500 mg/day orally for eight weeks, no change in one, possible deterioration in one)
rapid and dramatic clinical improvement: Clinical outcome of index case [2]
256 µg/mL: MIC (Desulfovibrio; Desulfovibrio strain 8236) | MIC (Desulfovibrio; Desulfovibrio strain 10831) | MIC (Desulfovibrio; Desulfovibrio strain 11081) | MIC (Desulfovibrio; Desulfovibrio strain 11378) | MIC (Desulfovibrio; Desulfovibrio strain 12379)
2-5,000 mcg/gm: Fecal levels after oral administration [1]
returned towards baseline: Analog ratings at long-term follow-up ([3]; two to eight months after discontinuance, in all but one child)
